Source: patent US8912146B2, “Derivatives of APF and methods of use” (University of Maryland, Baltimore, priority 2008, dated 2014)
*1 amine or outer side, *2 acyl side, *3 side chain or, on linkers, in order; H or OH if unused. Where a SMILES comes first, the peptide text is derived from it. [ ]: non-standard residue; d: D form. The star is where a group is joined. ξ: configuration not given here. X1 = CC(=O)NC1C(O[C@@H]2OC(CO)[C@H](O)C(O)C2O)[C@@H](O)C(CO)O[C@@H]1*; X2 = CC(C)(C)OC1C[C@@H](C(=O)[*:2])N([*:1])C1; Thr(3ξ) = CC(O)[C@H](N)C(=O)O; NMeA = CN[C@@H](C)C(=O)O; ξI = CCC(C)C(N)C(=O)O; ξV = CC(C)C(N)C(=O)O; ξA = CC(N)C(=O)O

What was measured:
[1] = system: primary normal human bladder epithelial cells; assay: 3H-thymidine incorporation (antiproliferative activity) in primary normal bladder epithelial cells; format: cell-based; settings: for % of activity: relative to 1 (as-APF) run on the same plate, from IC50, inactive = no significant activity at <25 μM
Method: Cell Culture. Cystoscopy was performed under general anesthesia, and 4-mm^2 pieces of transitional epithelium with submucosal bladder tissue were obtained for the growth of primary bladder epithelial cells, as previously described (Keay et al., 1996; 2004). Primary normal bladder epithelial cells were propagated in DMEM-F12 (Media-Tech, Herndon Va.) with 10% heat-inactivated fetal bovine serum (FBS), 1% antibiotic/antimycotic solution, 1% L-glutamine, 0.25 units/mL insulin (all from Sigma, St. Louis, Mo.), and 5 ng/mL hEGF (R&D Systems, Minneapolis, Minn.) at 37° C. in a 5% CO2 atmosphere and characterized by binding of AE-1/AE-3 pancytokeratin antibodies (Signet, Dedham, Mass.).
^3H-Thymidine Incorporation. Cell proliferation was measured by ^3H-thymidine incorporation into explanted normal human bladder epithelial cells, plating 1.5×10^4 cells/well onto a 96 well cell culture plate (VWR 29442-054), in 150 ul/well MEM containing 10% heat inactivated FBS, 1% antibiotic/antimycotic solution, and 1% L-glutamine (all from Sigma), resulting in a doubling time of 48-72 hours, as previously described (Keay et al., 1996; 2004). Each purified lyophilized synthetic APF congener was resuspended in acetonitrile/distilled water (1:1), and applied to the cells in serum-free MEM (containing only L-glutamine and antibiotics/antimycotics); cell controls received acetonitrile/distilled water diluted in serum-free MEM alone. Cells were then incubated at 37° C. in a 5% CO2 atmosphere for 48 hours. The cell contents harvested and methanol-fixed onto glass fiber filter paper, and the amount of radioactivity incorporated determined. Significant inhibition of ^3H-thymidine incorporation was defined as a mean decrease in counts per minute of greater than 2 standard deviations from the mean of control cells for each plate. Inhibition of cell proliferation was determined from a semi-log plot of dose-response for each APF derivative; IC50 was determined as the concentration of each derivative that caused a mean 50% inhibition of thymidine incorporation as compared to the mean of untreated cell controls.
Statistical Analysis. The thymidine incorporation (APF biological activity) assay was performed in triplicate on at least two separate runs, with 1 run simultaneously in triplicate on the same plate. The significance of the difference between mean values for each congener vs. mean values for compound 1 was determined by an analysis of variance.

[2] = system: primary normal human bladder epithelial cells; settings: Keay et al., 2004; cited from earlier work

Row | Molecule | antiproliferative activity compared with as-APF (1), in words [1] | % of activity [1] | activity ([1]; as-APF8 analogues Galβ1-3GalNAcα-O-TVPAA-R-R-R, Table 7) | activity in biological antiproliferation assays, previously determined [2]
1 | CC(=O)NC1C(O[C@@H]2OC(CO)[C@H](O)C(O)C2O)[C@@H](O)C(CO)O[C@@H]1OC(C)[C@H](N)C(=O)NC(C(=O)N1CC(OC(C)(C)C)C[C@H]1C(=O)NC(C)C(=O)N[C@@H](C)C(=O)NC(C(=O)N[C@H](C(=O)NC(C(=O)N[C@@H](C)C(=O)O)C(C)C)C(C)C)C(C)C)C(C)C (some centres unmarked) [Derivative 13] (H-[Thr(3ξ)](X1)[ξV][X2][ξA]A[ξV]V[ξV]A-OH) | 2-3 orders of magnitude decrease | 0.2% | – | –
2 | CC(=O)NC1C(O[C@@H]2OC(CO)[C@H](O)C(O)C2O)[C@@H](O)C(CO)O[C@@H]1OC(C)[C@H](N)C(=O)NC(C(=O)N(C)[C@@H](C)C(=O)NC(C)C(=O)N[C@@H](C)C(=O)NC(C(=O)N[C@H](C(=O)NC(C(=O)N[C@@H](C)C(=O)O)C(C)C)C(C)C)C(C)C)C(C)C (some centres unmarked) [Derivative 14] (H-[Thr(3ξ)](X1)[ξV][NMeA][ξA]A[ξV]V[ξV]A-OH) | 4 orders of magnitude decrease | 0.05% | – | –
3 | CC(=O)NC1C(O[C@@H]2OC(CO)[C@H](O)C(O)C2O)[C@@H](O)C(CO)O[C@@H]1OC(C)[C@H](N)C(=O)NC(C(=O)N1CCC[C@H]1C(=O)NCCCCCCCCCCCC(=O)O)C(C)C (some centres unmarked) [Derivative 16] | completely inactive | inactive | – | –
4 | CC(=O)NC1C(O[C@@H]2OC(CO)[C@H](O)C(O)C2O)[C@@H](O)C(CO)O[C@@H]1OC(C)[C@H](N)C(=O)NC(C(=O)N1CCC[C@H]1C(=O)NC(C)C(=O)N[C@@H](C)C(=O)O)C(C)C (some centres unmarked) [Derivative 17] (H-[Thr(3ξ)](X1)[ξV]P[ξA]A-OH) | completely inactive | inactive | – | –
5 | CC(=O)NC1C(O[C@@H]2OC(CO)[C@H](O)C(O)C2O)[C@@H](O)C(CO)O[C@@H]1OC(C)[C@H](N)C(=O)NC(C(=O)N1CCC[C@H]1C(=O)NC(C)C(=O)N[C@@H](C)C(=O)NC(C(=O)N[C@H](C(=O)NC(C(=O)O)C(C)C)C(C)C)C(C)C)C(C)C (some centres unmarked) [Derivative 18, Galβ1-3GalNAcα-O-TVPAAVVV] (H-[Thr(3ξ)](X1)[ξV]P[ξA]A[ξV]V[ξV]-OH) | full activity | 100% | 100% | –
6 | CC(=O)NC1C(O[C@@H]2OC(CO)[C@H](O)C(O)C2O)[C@@H](O)C(CO)O[C@@H]1OC(C)[C@H](N)C(=O)NC(C(=O)N1CCC[C@H]1C(=O)NC(C)C(=O)N[C@@H](C)C(=O)NC(C(=O)N[C@H](C(=O)O)C(C)C)C(C)C)C(C)C (some centres unmarked) [Derivative 19, Galβ1-3GalNAcα-O-TVPAAVV] (H-[Thr(3ξ)](X1)[ξV]P[ξA]A[ξV]V-OH) | completely inactive | inactive | – | –
7 | CC(=O)NC1C(O[C@@H]2OC(CO)[C@H](O)C(O)C2O)[C@@H](O)C(CO)O[C@@H]1OC(C)[C@H](N)C(=O)NC(C(=O)N1CCC[C@H]1C(=O)NC(C)C(=O)N[C@@H](C)C(=O)NC(C(=O)N[C@H](C(=O)NC(C)C(=O)N[C@H](C(=O)O)C(C)C)C(C)C)C(C)C)C(C)C (some centres unmarked) [Derivative 20] (H-[Thr(3ξ)](X1)[ξV]P[ξA]A[ξV]V[ξA]V-OH) | loss of most or all biological activity | inactive | – | –
8 | CC(=O)NC1C(O[C@@H]2OC(CO)[C@H](O)C(O)C2O)[C@@H](O)C(CO)O[C@@H]1OC(C)[C@H](N)C(=O)NC(C(=O)N1CCC[C@H]1C(=O)NC(C)C(=O)N[C@@H](C)C(=O)NC(C(=O)N[C@H](C(=O)NC(C(=O)N[C@@H](CC(C)C)C(=O)O)C(C)C)C(C)C)C(C)C)C(C)C (stereo partly drawn) [Derivative 21] (H-[Thr(3ξ)](X1)[ξV]P[ξA]A[ξV]V[ξV]L-OH) | loss of most or all biological activity | 0.01% | – | –
9 | CC(=O)NC1C(O[C@@H]2OC(CO)[C@H](O)C(O)C2O)[C@@H](O)C(CO)O[C@@H]1OC(C)[C@H](N)C(=O)NC(C(=O)N1CCC[C@H]1C(=O)NC(C)C(=O)N[C@H](C(=O)NC(C(=O)N[C@H](C(=O)NC(C(=O)N[C@@H](C)C(=O)O)C(C)C)C(C)C)C(C)C)C(C)C)C(C)C (some centres unmarked) [Derivative 22] (H-[Thr(3ξ)](X1)[ξV]P[ξA]V[ξV]V[ξV]A-OH) | loss of most or all biological activity | inactive | – | –
10 | CC(=O)NC1C(O[C@@H]2OC(CO)[C@H](O)C(O)C2O)[C@@H](O)C(CO)O[C@@H]1OC(C)[C@H](N)C(=O)NC(C(=O)N1CCC[C@H]1C(=O)NC(C)C(=O)N[C@@H](CO)C(=O)NC(C(=O)N[C@H](C(=O)NC(C(=O)N[C@@H](CO)C(=O)O)C(C)C)C(C)C)C(C)C)C(C)C (some centres unmarked) [Derivative 23] (H-[Thr(3ξ)](X1)[ξV]P[ξA]S[ξV]V[ξV]S-OH) | partial inactivation | 0.2% | – | –
11 | CC(=O)NC1C(O[C@@H]2OC(CO)[C@H](O)C(O)C2O)[C@@H](O)C(CO)O[C@@H]1OC(C)[C@H](N)C(=O)NC(C(=O)N1CCC[C@H]1C(=O)NC(C)C(=O)NCC(=O)NC(C(=O)N[C@H](C(=O)NC(C(=O)NCC(=O)O)C(C)C)C(C)C)C(C)C)C(C)C (some centres unmarked) [Derivative 24] (H-[Thr(3ξ)](X1)[ξV]P[ξA]G[ξV]V[ξV]G-OH) | complete inactivation | inactive | – | –
12 | CC(=O)NC1C(O[C@@H]2OC(CO)[C@H](O)C(O)C2O)[C@@H](O)C(CO)O[C@@H]1OC(C)[C@H](N)C(=O)NC(C(=O)N1CCC[C@H]1C(=O)NC(C)C(=O)N[C@@H](C)C(=O)NC(C)C(=O)N[C@@H](C)C(=O)NC(C)C(=O)N[C@@H](C)C(=O)O)C(C)C (some centres unmarked) [Derivative 25] (H-[Thr(3ξ)](X1)[ξV]P[ξA]A[ξA]A[ξA]A-OH) | decreased antiproliferative activity | 1% | – | –
13 | CC(=O)NC1C(O[C@@H]2OC(CO)[C@H](O)C(O)C2O)[C@@H](O)C(CO)O[C@@H]1OC(C)[C@H](N)C(=O)NC(C(=O)N1CCC[C@H]1C(=O)NC(C)C(=O)N[C@@H](C)C(=O)NCC(=O)NCC(=O)NCC(=O)N[C@@H](C)C(=O)O)C(C)C (some centres unmarked) [Derivative 26] (H-[Thr(3ξ)](X1)[ξV]P[ξA]AGGGA-OH) | complete inactivation of antiproliferative activity | 0.01% | – | –
14 | CC(=O)NC1C(O[C@@H]2OC(CO)[C@H](O)C(O)C2O)[C@@H](O)C(CO)O[C@@H]1OC(C)[C@H](N)C(=O)NC(C(=O)N1CCC[C@H]1C(=O)NC(C)C(=O)N[C@@H](C)C(=O)NC(C(=O)NC(C(=O)NC(C(=O)N[C@@H](C)C(=O)O)C(C)C)C(C)C)C(C)C)C(C)C (some centres unmarked) [Derivative 27] | complete inactivation of antiproliferative activity | inactive | – | –
15 | CCC(C)C(NC(=O)[C@H](C)NC(=O)C(C)NC(=O)[C@@H]1CCCN1C(=O)C(NC(=O)[C@@H](N)C(C)O[C@H]1OC(CO)[C@H](O)C(O[C@@H]2OC(CO)[C@H](O)C(O)C2O)C1NC(C)=O)C(C)C)C(=O)N[C@H](C(=O)NC(C(=O)N[C@@H](C)C(=O)O)C(C)CC)C(C)C (some centres unmarked) [Derivative 28] (H-[Thr(3ξ)](X1)[ξV]P[ξA]A[ξI]V[ξI]A-OH) | complete inactivation of antiproliferative activity | inactive | – | –
16 | CC(=O)NC1C(O[C@@H]2OC(CO)[C@H](O)C(O)C2O)[C@@H](O)C(CO)O[C@@H]1OC(C)[C@H](N)C(=O)NC(C(=O)N1CCC[C@H]1C(=O)NC(C)C(=O)N[C@@H](C)C(=O)NC(C(=O)N[C@H](C(=O)NC(C(=O)N[C@@H](C)C(=O)O)C(C)C)C(C)C)C(C)C)C(C)C (some centres unmarked) [Derivative 36] | complete inactivity | inactive | – | –
17 | Galβ1-3GalNAcβ-O-TVPAAVVVA | – | – | – | completely inactive
18 | Galβ1-4GlcNAcα-O-SLPAAVVVA | – | – | – | essentially equipotent
19 | Neu5Ac α 2-3Galβ1-4-GlcNAcα-O-TVPAAVVVA | – | – | – | essentially equipotent
20 | Neu5Acα2-3Galβ1-3GalNAcα-O-TVPAAVVVA | – | – | – | essentially equipotent
21 | Neu5Acα2-3Galβ1-4GlcNAcα-O-SLPAAVVVA | – | – | – | essentially equipotent
